Results published in a melting point compilation (Tetko et al.).

SMILES: CCCCCCCCCCCS(=O)(=O)c1cc2c3cc(S(=O)(=O)CCCCCCCCCCC)c(S(=O)(=O)CCCCCCCCCCC)cc3c3cc(S(=O)(=O)CCCCCCCCCCC)c(S(=O)(=O)CCCCCCCCCCC)cc3c2cc1S(=O)(=O)CCCCCCCCCCC
- melting point: 179 to 180 °C

SMILES: Ic1cc(NC2=NCCN2)cc2[nH]cnc12
- melting point: 180 to 181 °C

SMILES: CCCCC(C)OC(=O)c1c(I)c(I)c(C(=O)OC(C)CCCC)c(I)c1I (stereo unspecified)
- melting point: 114 to 115 °C

SMILES: [C-]#[N+]CCCS(=O)(=O)c1ccc(C)cc1
- melting point: 37 to 38 °C

SMILES: CC(C)=CCC/C(C)=C/CC/C(C)=C/CC/C=C(\C)CC/C=C(\C)CCC=C(C)C
- melting point: -5 °C

SMILES: CCO[Si](CCCCOc1ccc(S(=O)(=O)c2ccc(OCCCC[Si](OCC)(OCC)OCC)cc2Cc2ccc(C(F)(F)F)cc2)c(Cc2ccc(C(F)(F)F)cc2)c1)(OCC)OCC
- melting point: 124 to 128 °C

SMILES: C=CCOCC(=O)Nc1c(I)c(C(=O)NC(COC(C)=O)COC(C)=O)c(I)c(C(=O)NC(COC(C)=O)COC(C)=O)c1I
- melting point: 214 to 216 °C

SMILES: CC(c1cc(C(C)(C)C)cc(C(C)(C)C)c1O)c1cc(C(C)(C)C)cc(C(C)(C)C)c1OP1Oc2c(cc(C(C)(C)C)cc2C(C)(C)C)C(C)c2cc(C(C)(C)C)cc(C(C)(C)C)c2O1 (stereo unspecified)
- melting point: 219 to 221 °C

SMILES: O=C(O)c1ccnc(F)c1
- melting point: 195 to 197 °C

SMILES: C=CC(=O)OCCCCCCOc1ccc(C(=O)Oc2ccc(OC(=O)c3ccc(OCCCCCCOC(=O)C=C)cc3)c(C(=O)OCCCCCCCCOc3ccc(C#N)cc3)c2)cc1
- melting point: 54.5 °C

SMILES: CCCCCCCCCCN(CCCCN(CCCN(CCCCCCCCCC)C(=O)c1cccc(O)c1O)C(=O)c1cccc(O)c1O)C(=O)c1cccc(O)c1O
- melting point: 63 to 65 °C

SMILES: COC(=O)c1cc(C(C)(C)C)c(OP2OP(Oc3c(C(C)(C)C)cc(C(=O)OC)cc3C(C)(C)C)OP(Oc3c(C(C)(C)C)cc(C(=O)OC)cc3C(C)(C)C)O2)c(C(C)(C)C)c1 (stereo unspecified)
- melting point: 185 to 200 °C

SMILES: O=C1OC(O)c2cccc(F)c21 (stereo unspecified)
- melting point: 126 to 127 °C

SMILES: CCCCCCCCCCCCCCCCCCN(CCCCCCCCCCCCCCCCCC)C(=O)c1cc(NS(=O)(=O)c2cnc(Cl)c(OC)c2)c2ccccc2c1O
- melting point: 85 to 87 °C

SMILES: CCOC(=O)c1c(I)c(NS(=O)(=O)c2cccc3c(N(C)C)cccc23)c(I)c(N(CC)C(C)=O)c1I
- melting point: 238 to 240 °C

SMILES: O=C(Cc1ccccc1)Oc1n[nH]c(=O)c2nc3cc(Cl)ccc3c(O)c12
- melting point: 278 to 282 °C

SMILES: CC(C)[C@H](NC(=O)N(C)Cc1cscn1)C(=O)N[C@@H](Cc1ccccc1)[C@@H](O)[C@H](O)[C@H](Cc1ccccc1)NC(=O)[C@@H](NC(=O)N(C)Cc1cscn1)C(C)C
- melting point: 92 to 94 °C

SMILES: CC(C)CC(NC(=O)OCc1ccccc1)C(=O)NC(C)C(=O)NC(CCCN(C(=N)NC(=O)OCc1ccccc1)C(=O)OCc1ccccc1)C(=O)Oc1cccc2ccccc12 (stereo unspecified)
- melting point: 179 to 183 °C

SMILES: CC(=O)c1cc2cc(Br)ccc2oc1=O
- melting point: 227 °C

SMILES: CC[C@H](C)[C@H](NC(=O)OCC1c2ccccc2-c2ccccc21)C(=O)N[C@@H](Cc1ccc(OC(C)(C)C)cc1)C(=O)N[C@@H](C)C(=O)NCc1c(OC)ccc2c1Oc1c(ccc(OC)c1CC(=O)OCc1ccccc1)C2(C)C
- melting point: 218 to 220 °C

SMILES: FC(F)(Br)C(F)(Cl)Br (stereo unspecified)
- melting point: -72.9 °C

SMILES: [C-]#[N+]Cc1nc(-c2ccccc2)c(-c2ccccc2)o1
- melting point: 95 to 96 °C

SMILES: CCOC(=O)COc1cccc2c1CCc1sc(S(=O)CC(c3ccccc3)c3ccccc3)nc1-2 (stereo unspecified)
- melting point: 127 to 129 °C

SMILES: O=C1OC(=O)c2ccc3c4c(ccc1c24)C(=O)OC3=O
- melting point: 300 °C

SMILES: CC(CCC(=O)NCCNCCCNC(=O)CN1CCN(CC(=O)O)CCN(CC(=O)O)CCN(CC(=O)O)CC1)C1CCC2C3C(O)CC4CC(O)CCC4(C)C3CC(O)C12C (stereo unspecified)
- melting point: 154 °C

SMILES: CCc1nc(C)c(C(=O)OCOC(=O)C(C)(C)C)n1Cc1ccc2oc(-c3ccccc3-c3nnn(C(c4ccccc4)(c4ccccc4)c4ccccc4)n3)c(Br)c2c1
- melting point: 51 to 53 °C

SMILES: CCCCCCCCCCCCCCCCCCCCCCCC[C@@H](C(=O)O)[C@H](O)CCCCCCCCCCCCCCC[C@@H]1C[C@@H]1CCCCCCCCCCCCCCCCCCC(=O)[C@@H](C)CCCCCCCCCCCCCCCCCC
- melting point: 66 to 68 °C

SMILES: CN1C(C)(C)CC2(CC1(C)C)NC(=O)N(CC(O)COC(=O)CCCCCCCCCCC(=O)OCC(O)CN1C(=O)NC3(CC(C)(C)N(C)C(C)(C)C3)C1=O)C2=O (stereo unspecified)
- melting point: 53 to 57 °C

SMILES: COc1cc(OC)c(/C=C/C(c2ccc(OC)c(OC)c2OC)S(=O)(=O)C(/C=C/c2c(OC)cc(OC)cc2OC)c2ccc(OC)c(OC)c2OC)c(OC)c1 (stereo unspecified)
- melting point: 94 to 96 °C

SMILES: Cn1cncc1C(O)(c1ccoc1)c1ccc2c(c1)c(-c1cccc(Cl)c1)cc1nnnn12 (stereo unspecified)
- melting point: 188 °C

SMILES: CCCCCCCCCCCCCCCC(=O)OCC(CSCC(NC(=O)OCc1cccc2c1Cc1ccccc1-2)C(=O)O)OC(=O)CCCCCCCCCCCCCCC (mixture of isomers)
- melting point: 82 to 84 °C

SMILES: CC(C)(Cc1ccc(S(=O)(=O)CCc2c(CCNS(=O)(=O)Cc3ccc(Cl)c(Cl)c3)n(C(c3ccccc3)c3ccccc3)c3ccc(Cl)cc23)cc1)C(=O)O
- melting point: 207 to 208 °C

SMILES: CC(=O)OC1C(=O)C2(C)C(O)CC3OCC3(OC(C)=O)C2C(OC(=O)c2ccccc2)C2(O)CC(OC(=O)C(OC(=O)CCC(=O)O)C(NC(=O)c3ccccc3)c3ccccc3)C(C)=C1C2(C)C (stereo unspecified)
- melting point: 178 to 180 °C

SMILES: CC(C)[C@H](NC(=O)N(C)Cc1csc(NC(=O)OC(C)(C)C)n1)C(=O)N[C@@H](Cc1ccccc1)C[C@H](O)[C@H](Cc1ccccc1)NC(=O)[C@@H](NC(=O)N(C)Cc1csc(NC(=O)OC(C)(C)C)n1)C(C)C
- melting point: 115 to 120 °C

SMILES: C=C1C(n2ccc(NC(=O)CCCCCCCCCCCCCCCCC)nc2=O)OC(COC(=O)CCCCCCCCCCCCCCCCC)C1(O)C(=O)CCCCCCCCCCCCCCCCC (stereo unspecified)
- melting point: 92 to 96 °C

SMILES: CCCCCCCCCCCCCCCCCCOC(=O)CCSCc1c(C)c(O)c(C)c(CSCCC(=O)OCCCCCCCCCCCCCCCCCC)c1C
- melting point: 66 to 70 °C

SMILES: Cc1c(SCCN2CCOCC2)ccnc1CSc1nc2ccccc2n1CC(=O)N(C)C
- melting point: 178 to 180 °C

SMILES: O=S(c1cc(C(F)(F)F)[nH]c1-c1ccc(Cl)cc1)C(F)(F)F (stereo unspecified)
- melting point: 198 to 200 °C

SMILES: CCCCCCCCCCCCCCCCCCCCCCCCCCCCCCCCCCCCCCCCCCCC
- melting point: 87.5 to 88 °C

SMILES: CC(NC(=O)C(CC(C(=O)O)C(C)(C)C)NC(=O)C(CC(C(=O)O)C(C)(C)C)NC(=O)C(NC(=O)C(N)C(C)C)C(C)C)C(=O)NC(CC(C(=O)O)C(C)(C)C)C(=O)NC(CC(N)=O)C(=O)OC(C)(C)C (stereo unspecified)
- melting point: 229 to 231 °C

SMILES: CCOC(=O)C=Cc1cc2cc(OC)ccc2[nH]c1=O
- melting point: 209 to 211 °C

SMILES: CCOC(=O)c1cc(NCc2c(C)cccc2CC)c2nc(C)n(C)c2c1
- melting point: 171 to 173 °C

SMILES: O=P(O)(C(F)(F)C(F)(F)C(F)(F)C(F)(F)C(F)(F)C(F)(F)C(F)(C(F)(F)F)C(F)(F)F)C(F)(F)C(F)(F)C(F)(F)C(F)(F)C(F)(F)C(F)(F)C(F)(C(F)(F)F)C(F)(F)F
- melting point: 170 to 172 °C

SMILES: CC(C)C(OC(C(I)=C(I)I)C(C)C)C(I)=C(I)I (stereo unspecified)
- melting point: 43.5 to 44 °C

SMILES: CCCCCCCCN=C(O)c1c(Sc2ccc([N+](=O)[O-])cc2)c(Sc2ccc([N+](=O)[O-])cc2)c(Sc2ccc([N+](=O)[O-])cc2)c(Sc2ccc([N+](=O)[O-])cc2)c1C(=O)O
- melting point: 202 to 204 °C

SMILES: Cc1cc(-n2ccnc2)c2cccc(OCc3c(Cl)ccc(S(=O)(=O)N4CCCC4C(=O)NCC4CCN(C(=O)CCCC(=O)OC(C)(C)C)CC4)c3Cl)c2n1 (stereo unspecified)
- melting point: 112 °C

SMILES: COc1ccc(OC)c(CCNC(=O)N[C@H](Cc2cc(Br)c(O)c(Br)c2)C(=O)N[C@@H](CCCCN)C(=O)N2CCN(c3ccncc3)CC2)c1
- melting point: 135 to 137 °C

SMILES: O=c1c(CCCc2cccnc2)cc2cccnc2n1-c1cccc([N+](=O)[O-])c1
- melting point: 172 to 173 °C

SMILES: CCN(c1nc(OCCOC(=O)CCC(=O)OCCOc2nc(N(CC)C3CC(C)(C)NC(C)(C)C3)nc(N(CC)C3CC(C)(C)NC(C)(C)C3)n2)nc(N(CC)C2CC(C)(C)NC(C)(C)C2)n1)C1CC(C)(C)NC(C)(C)C1
- melting point: 85 °C

SMILES: CCOC(CN1C(=O)C2=C(c3cc4cc(C(C)(C)C)cc(C(C)(C)C)c4o3)N(CC(OCC)OCC)C(=O)C2=C1c1cc2cc(C(C)(C)C)cc(C(C)(C)C)c2o1)OCC
- melting point: 194 to 196 °C

SMILES: CCCCCCCCCCCCCCCCCCN(CCCCCCCCCCCCCCCCCC)C(=O)c1cc(NS(=O)(=O)c2ccc(S(=O)(=O)CCC#N)cc2)c2ccccc2c1O
- melting point: 85 to 86 °C

SMILES: CC1(C)CC(Nc2nc(N(C3CC(C)(C)NC(C)(C)C3)C3CC(C)(C)NC(C)(C)C3)nc(N(C3CC(C)(C)NC(C)(C)C3)C3CC(C)(C)NC(C)(C)C3)n2)CC(C)(C)N1
- melting point: 318 to 320 °C

SMILES: CCCCCCCCCCCCCC=CC(OC(=O)c1ccccc1)C(COC1OC(CO)C(OCCC(C(=O)OC(C)(C)C)C(=O)OC(C)(C)C)C(O)C1O)NC(=O)CCCCCCCCCCCCCCC (stereo unspecified)
- melting point: 48 to 50 °C

SMILES: NS(=O)(=O)c1ccc(-c2c(-c3ccccc3)noc2CO[N+](=O)[O-])cc1
- melting point: 47 to 50 °C

SMILES: FC(F)(F)C(F)(F)C(F)(F)C(F)(F)C(F)(F)C(F)(F)C(F)(F)C(F)(F)CCC1(CCC(F)(F)C(F)(F)C(F)(F)C(F)(F)C(F)(F)C(F)(F)C(F)(F)C(F)(F)F)c2ccccc2-c2ccccc21
- melting point: 87 to 88 °C

SMILES: C=C(C)C(=O)OCCCCCCCCCCCOc1ccc(-c2nc(-c3ccccc3)nc(-c3ccc(OCCCCCCCCCCCOC(=O)C(=C)C)cc3O)n2)c(O)c1
- melting point: 68.3 °C

SMILES: CCOC(=O)C(C)OC(=O)c1c(I)c(NC(C)=O)c(I)c(C(=O)OC(C)C(=O)OCC)c1I (stereo unspecified)
- melting point: 160 to 165 °C

SMILES: COc1cc(C(=O)O)ccc1Cc1cn(C(C)=O)c2ccc(NC(=O)CC3CCCC3)cc12
- melting point: 245 to 247 °C

SMILES: CC(C)CCCC(C)C1CCC2C3CC=C4CC(N(CCCNC(=O)CCNC(=O)CCCCCNc5ccc([N+](=O)[O-])cc5[N+](=O)[O-])S(=O)(=O)c5ccccc5[N+](=O)[O-])CCC4(C)C3CCC12C (stereo unspecified)
- melting point: 86 to 87 °C

SMILES: CCCCOC(=O)Nc1nc(CN(C)C(=O)N[C@H](C(=O)N[C@@H](Cc2ccccc2)C[C@H](O)[C@H](Cc2ccccc2)NC(=O)[C@@H](NC(=O)N(C)Cc2csc(NC(=O)OCCCC)n2)C(C)C)C(C)C)cs1
- melting point: 115 to 120 °C

SMILES: CSc1ccccc1C(=O)Nc1ccc(C(=O)N2Cc3cccn3Cc3ccccc32)cc1
- melting point: 171 to 174 °C
